Source: PubChem BioAssay (NCI)
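In this assay, cells in 96-well plates receive the compound at five concentrations for 48 hours. Endpoints are linearly interpolated between the surrounding concentrations. TGI: total growth inhibition.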

Tests used:
Assay in all cases: inhibition of tumour cell growth, NCI panel, 48 h
HL-60(TB) leukemia = test system: HL-60(TB) leukemia
LOX IMVI melanoma = test system: LOX IMVI melanoma
OVCAR-4 ovarian = test system: OVCAR-4 ovarian
TK-10 renal = test system: TK-10 renal
HOP-62 NSCLC = test system: HOP-62 NSCLC
RXF 393 renal = test system: RXF 393 renal
DU-145 prostate = test system: DU-145 prostate
SF-268 CNS = test system: SF-268 CNS
OVCAR-8 ovarian = test system: OVCAR-8 ovarian
M14 melanoma = test system: M14 melanoma
UACC-257 melanoma = test system: UACC-257 melanoma
MALME-3M melanoma = test system: MALME-3M melanoma
SR leukemia = test system: SR leukemia
SNB-75 CNS = test system: SNB-75 CNS
SK-MEL-5 melanoma = test system: SK-MEL-5 melanoma
UO-31 renal = test system: UO-31 renal
BT-549 breast = test system: BT-549 breast
MDA-N = test system: MDA-N
U251 CNS = test system: U251 CNS
CAKI-1 renal = test system: CAKI-1 renal
COLO 205 colon = test system: COLO 205 colon
EKVX NSCLC = test system: EKVX NSCLC
OVCAR-5 ovarian = test system: OVCAR-5 ovarian
IGROV1 ovarian = test system: IGROV1 ovarian
PC-3 prostate = test system: PC-3 prostate
SF-295 CNS = test system: SF-295 CNS
A549 NSCLC = test system: A549 NSCLC
NCI-H460 lung = test system: NCI-H460 lung
SK-OV-3 ovarian = test system: SK-OV-3 ovarian
A498 renal = test system: A498 renal
MDA-MB-231 breast = test system: MDA-MB-231 breast
MCF7 breast = test system: MCF7 breast
RPMI-8226 leukemia = test system: RPMI-8226 leukemia
SNB-19 CNS = test system: SNB-19 CNS
HCT-116 colon = test system: HCT-116 colon
HT29 colon = test system: HT29 colon
UACC-62 melanoma = test system: UACC-62 melanoma
ACHN renal = test system: ACHN renal
HCC-2998 colon = test system: HCC-2998 colon
SK-MEL-2 melanoma = test system: SK-MEL-2 melanoma
KM12 colon = test system: KM12 colon
OVCAR-3 ovarian = test system: OVCAR-3 ovarian
SF-539 CNS = test system: SF-539 CNS
NCI-H226 lung = test system: NCI-H226 lung
NCI/ADR-RES ovarian = test system: NCI/ADR-RES ovarian
HOP-92 NSCLC = test system: HOP-92 NSCLC
SK-MEL-28 melanoma = test system: SK-MEL-28 melanoma
786-0 renal = test system: 786-0 renal
SW-620 colon = test system: SW-620 colon
NCI-H23 lung = test system: NCI-H23 lung
T-47D breast = test system: T-47D breast
NCI-H522 lung = test system: NCI-H522 lung
HS 578T breast = test system: HS 578T breast
K-562 leukemia = test system: K-562 leukemia
SN12C renal = test system: SN12C renal
MOLT-4 leukemia = test system: MOLT-4 leukemia
HCT-15 colon = test system: HCT-15 colon
CCRF-CEM leukemia = test system: CCRF-CEM leukemia
MDA-MB-435 = test system: MDA-MB-435

In the case of `N#CC1=C(N)OC2=C(CCCc3ccc([N+](=O)[O-])cc32)C1c1ccccc1` (stereo not drawn), the TGI (HL-60(TB) leukemia) is reported as 4.19 µM, the TGI (LOX IMVI melanoma) is reported as 19.6 µM and the TGI (OVCAR-4 ovarian) is reported as > 100 µM. The TGI (TK-10 renal) was 49.1 µM, the TGI (HOP-62 NSCLC) was 17.4 µM and the TGI (RXF 393 renal) was 8.88 µM. The TGI (DU-145 prostate) was 15.4 µM, the TGI (SF-268 CNS) was 21.9 µM and the TGI (OVCAR-8 ovarian) was 22.4 µM. The TGI (M14 melanoma) was 12.4 µM, the TGI (UACC-257 melanoma) was 24.6 µM and the TGI (MALME-3M melanoma) was 20.6 µM. The TGI (SR leukemia) was 9.56 µM, the TGI (SNB-75 CNS) was > 100 µM and the TGI (SK-MEL-5 melanoma) was 13 µM. It also gave a TGI (UO-31 renal) of 20.9 µM, a TGI (BT-549 breast) of 29.7 µM and a TGI (MDA-N) of 5.38 µM. The TGI (U251 CNS) was 17.5 µM, the TGI (CAKI-1 renal) was > 100 µM and the TGI (COLO 205 colon) was 13.7 µM. The TGI (EKVX NSCLC) was 35.2 µM, the TGI (OVCAR-5 ovarian) was 43.1 µM and the TGI (IGROV1 ovarian) was 23.7 µM. For the same molecule, the TGI (PC-3 prostate) was 44.7 µM, the TGI (SF-295 CNS) was 13.9 µM and the TGI (A549 NSCLC) was > 100 µM. For the same molecule, the TGI (NCI-H460 lung) was 23.1 µM, the TGI (SK-OV-3 ovarian) was 58.5 µM and the TGI (A498 renal) was 10.5 µM. The TGI (MDA-MB-231 breast) was > 100 µM, the TGI (MCF7 breast) was 15.2 µM and the TGI (RPMI-8226 leukemia) was 10.9 µM. The TGI (SNB-19 CNS) was 45.2 µM, the TGI (HCT-116 colon) was 16 µM and the TGI (HT29 colon) was 12.2 µM. For the same molecule, the TGI (UACC-62 melanoma) was 6.12 µM, the TGI (ACHN renal) was 45.2 µM and the TGI (HCC-2998 colon) was 6.41 µM. It also gave a TGI (SK-MEL-2 melanoma) of 34.1 µM, a TGI (KM12 colon) of 14.8 µM and a TGI (OVCAR-3 ovarian) of 6.33 µM. The TGI (SF-539 CNS) was 12.7 µM, the TGI (NCI-H226 lung) was 31 µM and the TGI (NCI/ADR-RES ovarian) was 7.45 µM. It also gave a TGI (HOP-92 NSCLC) of 44.9 µM, a TGI (SK-MEL-28 melanoma) of 22.4 µM and a TGI (786-0 renal) of 26.9 µM. The TGI (SW-620 colon) was 15.7 µM, the TGI (NCI-H23 lung) was 36 µM and the TGI (T-47D breast) was 30.5 µM. For the same molecule, the TGI (NCI-H522 lung) was 10.9 µM, the TGI (HS 578T breast) was > 100 µM and the TGI (K-562 leukemia) was 13.8 µM. The TGI (SN12C renal) was 20.4 µM, the TGI (MOLT-4 leukemia) was 18.7 µM and the TGI (HCT-15 colon) was 16.7 µM.
In the case of `COC(=O)[C@@H]1CCc2nc3ccccc3c(=O)n21`, the TGI (HL-60(TB) leukemia) is reported as > 100 µM, the TGI (LOX IMVI melanoma) is reported as > 100 µM and the TGI (OVCAR-4 ovarian) is reported as > 100 µM. The TGI (TK-10 renal) was > 100 µM, the TGI (HOP-62 NSCLC) was > 100 µM and the TGI (DU-145 prostate) was > 100 µM. The TGI (SF-268 CNS) was > 100 µM, the TGI (OVCAR-8 ovarian) was > 100 µM and the TGI (M14 melanoma) was > 100 µM. The TGI (UACC-257 melanoma) was > 100 µM, the TGI (SR leukemia) was > 100 µM and the TGI (SNB-75 CNS) was > 100 µM. For the same molecule, the TGI (CCRF-CEM leukemia) was > 100 µM, the TGI (SK-MEL-5 melanoma) was > 100 µM and the TGI (UO-31 renal) was > 100 µM. The TGI (BT-549 breast) was > 100 µM, the TGI (MDA-N) was > 100 µM and the TGI (U251 CNS) was > 100 µM. For the same molecule, the TGI (CAKI-1 renal) was > 100 µM, the TGI (COLO 205 colon) was > 100 µM and the TGI (EKVX NSCLC) was > 100 µM. For the same molecule, the TGI (OVCAR-5 ovarian) was > 100 µM, the TGI (IGROV1 ovarian) was > 100 µM and the TGI (SF-295 CNS) was > 100 µM. The TGI (A549 NSCLC) was > 100 µM, the TGI (NCI-H460 lung) was > 100 µM and the TGI (SK-OV-3 ovarian) was > 100 µM. For the same molecule, the TGI (A498 renal) was > 100 µM, the TGI (MDA-MB-231 breast) was > 100 µM and the TGI (RPMI-8226 leukemia) was > 100 µM. The TGI (HCT-116 colon) was > 100 µM, the TGI (HT29 colon) was > 100 µM and the TGI (UACC-62 melanoma) was > 100 µM. The TGI (ACHN renal) was > 100 µM, the TGI (HCC-2998 colon) was > 100 µM and the TGI (SK-MEL-2 melanoma) was > 100 µM. The TGI (KM12 colon) was > 100 µM, the TGI (OVCAR-3 ovarian) was > 100 µM and the TGI (NCI-H226 lung) was > 100 µM. For the same molecule, the TGI (NCI/ADR-RES ovarian) was > 100 µM, the TGI (HOP-92 NSCLC) was > 100 µM and the TGI (MDA-MB-435) was > 100 µM. The TGI (SK-MEL-28 melanoma) was > 100 µM, the TGI (786-0 renal) was > 100 µM and the TGI (SW-620 colon) was > 100 µM. For the same molecule, the TGI (NCI-H23 lung) was > 100 µM, the TGI (T-47D breast) was > 100 µM and the TGI (NCI-H522 lung) was > 100 µM. For the same molecule, the TGI (HS 578T breast) was > 100 µM, the TGI (K-562 leukemia) was > 100 µM and the TGI (SN12C renal) was > 100 µM. For the same molecule, the TGI (MOLT-4 leukemia) was > 100 µM and the TGI (HCT-15 colon) was > 100 µM.
`CN(C)c1nc2nonc2nc1Nc1ccccc1` was tested, and the TGI (HL-60(TB) leukemia) was > 100 µM, the TGI (LOX IMVI melanoma) was > 100 µM and the TGI (TK-10 renal) was > 100 µM. For the same molecule, the TGI (HOP-62 NSCLC) was > 100 µM, the TGI (RXF 393 renal) was > 100 µM and the TGI (DU-145 prostate) was > 100 µM. For the same molecule, the TGI (SF-268 CNS) was > 100 µM, the TGI (OVCAR-8 ovarian) was > 100 µM and the TGI (M14 melanoma) was > 100 µM. The TGI (UACC-257 melanoma) was > 100 µM, the TGI (MALME-3M melanoma) was > 100 µM and the TGI (SR leukemia) was > 100 µM. The TGI (SNB-75 CNS) was > 100 µM, the TGI (CCRF-CEM leukemia) was > 100 µM and the TGI (SK-MEL-5 melanoma) was > 100 µM. For the same molecule, the TGI (UO-31 renal) was > 100 µM, the TGI (BT-549 breast) was > 100 µM and the TGI (MDA-N) was > 100 µM. The TGI (U251 CNS) was > 100 µM, the TGI (COLO 205 colon) was > 100 µM and the TGI (EKVX NSCLC) was > 100 µM. For the same molecule, the TGI (OVCAR-5 ovarian) was > 100 µM, the TGI (IGROV1 ovarian) was > 100 µM and the TGI (PC-3 prostate) was > 100 µM. The TGI (SF-295 CNS) was > 100 µM, the TGI (A549 NSCLC) was > 100 µM and the TGI (NCI-H460 lung) was > 100 µM. For the same molecule, the TGI (SK-OV-3 ovarian) was > 100 µM, the TGI (A498 renal) was > 100 µM and the TGI (MDA-MB-231 breast) was > 100 µM. The TGI (MCF7 breast) was > 100 µM, the TGI (RPMI-8226 leukemia) was > 100 µM and the TGI (SNB-19 CNS) was > 100 µM. For the same molecule, the TGI (HCT-116 colon) was > 100 µM, the TGI (HT29 colon) was > 100 µM and the TGI (UACC-62 melanoma) was > 100 µM. The TGI (ACHN renal) was > 100 µM, the TGI (HCC-2998 colon) was > 100 µM and the TGI (SK-MEL-2 melanoma) was > 100 µM. For the same molecule, the TGI (NCI-H226 lung) was > 100 µM, the TGI (NCI/ADR-RES ovarian) was > 100 µM and the TGI (HOP-92 NSCLC) was > 100 µM. The TGI (SK-MEL-28 melanoma) was > 100 µM, the TGI (786-0 renal) was > 100 µM and the TGI (SW-620 colon) was > 100 µM. The TGI (NCI-H23 lung) was > 100 µM, the TGI (T-47D breast) was > 100 µM and the TGI (NCI-H522 lung) was > 100 µM. The TGI (HS 578T breast) was > 100 µM, the TGI (K-562 leukemia) was > 100 µM and the TGI (SN12C renal) was > 100 µM. For the same molecule, the TGI (MOLT-4 leukemia) was > 100 µM and the TGI (HCT-15 colon) was > 100 µM.
